In patent publication US6831080B2, “Cinnamide derivatives as KCNQ potassium channel modulators” (Bristol-Myers Squibb Company, priority 2001, dated 2004):

Legend:
mKCNQ2 channels = target: T1, mKCNQ2 channels (Mus musculus, UniProt Q9Z351); experiment: Whole-cell patch-clamp, HEK 293 stable cell line expressing mKCNQ2 channels; assay type: cell-based; details: HEK 293 mKCNQ2, Hill fit; for EC50: @ −40 mV; for Emax: HEK293, read-out: Imax (%)
T1 construct: expressed in transfected cells
Procedure: Whole-cell patch-clamp recordings were made from an HEK 293 stable cell line expressing mKCNQ2 channels, maintained in culture for 1-2 days. Patch pipettes had initial resistances of 2.5-4 MΩ. Currents were recorded with an EPC-9 amplifier (HEKA, Lambrecht, Germany) controlled with software (Pulse, HEKA) run on a standard lab PC. Series resistance compensation was used during current recording, and set at 80%. The series resistance (R) and cell capacitance (C) were determined electronically by subtracting the capacitive currents at the onset and offset of a 5 mV voltage step. The cancellation of whole-cell capacitance transients was virtually complete in all cells. Analog current signals were low-pass filtered at 2.9 kHz using a four-pole Bessel filter −3 dB) and stored on a local network server computer at a sampling rate of […]. All recordings were performed at room temperature (20-22° C.). The pipette solution contained (mM): KCl, 150; CaCl2, 2.5; EGTA, 5; MgCl2, 1; HEPES, 10; pH to 7.3 with KOH, and Osmolality of 290-300 mOsm. The extracellular solution contained (mM): NaCl, 140; KCl, 2.5; CaCl2, 2.5; MgCl2, 1; glucose, 10; HEPES, 10; pH to 7.3 with NaOH, and Osmolality of 305-310 mOsm
Concentration response data were generated by measuring the difference in the steady-state amplitude of current in the presence of compound at the end of a 600 ms voltage-clamp step from a holding potential of −80 mV. The concentration-response data were fitted with Hill-type equations: […]
where I is the steady-state current at a given concentration of agonist [A]; and Imax, EC50 and nH are parameters estimated from the curve fit. In some cases the concentration-response data were fitted with equations consisting of the sum of two Hill-type components. Current-voltage (I/V) relationships for agonist-evoked currents were obtained by performing 600 ms voltage steps (−110 mV to +40 mV) in the absence and presence of agonist.

T1 sequence (Q9Z351 whole entry): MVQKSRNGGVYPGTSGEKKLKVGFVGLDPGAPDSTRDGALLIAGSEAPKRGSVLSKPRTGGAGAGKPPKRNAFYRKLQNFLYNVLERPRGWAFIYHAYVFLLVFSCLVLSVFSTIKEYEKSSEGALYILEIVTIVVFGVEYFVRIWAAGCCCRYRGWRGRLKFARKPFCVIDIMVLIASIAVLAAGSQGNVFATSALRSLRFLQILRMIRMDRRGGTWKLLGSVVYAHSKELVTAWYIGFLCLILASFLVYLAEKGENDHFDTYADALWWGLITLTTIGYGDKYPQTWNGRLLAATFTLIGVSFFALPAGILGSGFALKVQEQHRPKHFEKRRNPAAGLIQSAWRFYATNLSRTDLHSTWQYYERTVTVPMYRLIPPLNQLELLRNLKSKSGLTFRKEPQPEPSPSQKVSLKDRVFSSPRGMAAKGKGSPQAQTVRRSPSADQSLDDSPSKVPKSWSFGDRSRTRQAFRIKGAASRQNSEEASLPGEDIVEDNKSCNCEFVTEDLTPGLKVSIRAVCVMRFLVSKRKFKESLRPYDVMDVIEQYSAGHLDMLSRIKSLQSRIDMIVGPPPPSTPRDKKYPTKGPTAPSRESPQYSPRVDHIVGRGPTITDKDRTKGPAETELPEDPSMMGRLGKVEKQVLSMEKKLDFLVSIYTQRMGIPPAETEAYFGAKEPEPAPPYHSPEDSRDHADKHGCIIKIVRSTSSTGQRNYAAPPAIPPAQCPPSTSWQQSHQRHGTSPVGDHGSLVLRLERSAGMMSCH

| SMILES | EC50 (mKCNQ2 channels) [µM] | melting point | Emax (mKCNQ2 channels) [%] |
| --- | --- | --- | --- |
| C[C@H](NC(=O)/C=C/c1ccc(Cl)cc1F)c1cccc(N2CCOCC2)c1 [Example 97, (S)-3-(4-Chloro-2-fluoro-phen-yl)-N-[1-(3-morpho-lin-4-yl-phenyl)-eth-yl]-acrylamide] | 2.9 | – | – |
| CC(NC(=O)/C=C/c1cccc(F)c1)c1ccc2c(c1)CCCN2 (stereo not shown) [Example 254, 3-(3-fluoro-phenyl)-N-[1-(1,2,3,4-tetrahydro-quinolin-6-yl)ethyl]acrylamide] | – | 172 to 174 °C | – |
| CCN1CCCc2ccc(C(C)NC(=O)/C=C/c3ccccc3)cc21 (racemic) [Example 241, (±)-N-[1-(1-ethyl-1,2,3,4-tetrahydro-quinolin-7-yl)-ethyl]-3-phenyl-acrylamide] | – | 50 to 52 °C | – |
| CC(NC(=O)/C=C/c1cc(F)ccc1F)c1ccc2c(c1)OCO2 (racemic) [Example 38, (±)-N-(1-Benzo[1,3]-diox-ol-5-yl-ethyl)-3-(2,5-di-fluoro-phenyl)-acrylamide] | 4.2 | – | 550 |
| CC(NC(=O)/C=C/c1ccc(F)cc1)c1ccc2c(c1)NCCC2 (racemic) [Example 235, (±)-3-(4-fluoro-phenyl)-N-[1-(1,2,3,4-tetrahydro-quinolin-7-yl)ethyl]-acrylamide] | – | 125 to 127 °C (dec.) | – |
| CC(NC(=O)/C=C/c1ccccc1F)c1ccc2c(c1)CCCN2 (stereo not shown) [Example 251, 3-(2-fluoro-phenyl)-N-[1-(1,2,3,4-tetrahydro-quinolin-6-yl)ethyl]acrylamide] | – | 149 to 151 °C (dec.) | – |
| CC(NC(=O)/C=C/c1ccc(F)cc1)c1ccc2c(c1)CCCN2 (stereo not shown) [Example 255, 3-(4-fluoro-phenyl)-N-[1-(1,2,3,4-tetrahydro-quinolin-6-yl)ethyl]acrylamide] | – | 140 to 143 °C | – |
| CC(NC(=O)/C=C/c1ccccc1)c1ccc2c(c1)NCCC2 (racemic) [Example 233, (±)-3-phenyl-N-[1-(1,2,3,4-tetrahydro-quinolin-7-yl)ethyl]-acrylamide] | – | 144 to 146 °C | – |
| CC(NC(=O)/C=C/c1cc(F)ccc1F)c1ccc2c(c1)NCCC2 (racemic) [Example 234, (±)-3-(2,5-difluoro-phenyl)-N-[1-(1,2,3,4-tetrahydro-quinolin-7-yl)ethyl]-acrylamide] | – | 139 to 141 °C | – |
| CC(NC(=O)/C=C/c1ccccc1)c1ccc2c(c1)CCCN2C (stereo not shown) [Example 256, N-[1-(1-methyl-1,2,3,4-tetrahydro-quinolin-6-yl)-ethyl]-3-phenyl-acrylamide] | – | 65 to 68 °C | – |
| CC(NC(=O)/C=C/c1cc(F)ccc1F)c1ccc2c(c1)CCCN2C (stereo not shown) [Example 257, 3-(2,5-difluoro-phenyl)-N-[1-(1-methyl-1,2,3,4-tetrahydro-quinolin-6-yl)ethyl]acrylamide] | – | 51 to 55 °C | – |
| CC(NC(=O)/C=C/c1ccccc1F)c1ccc2c(c1)N(C)CCC2 (racemic) [Example 236, (±)-3-(2-fluoro-phenyl)-N-[1-(1-methyl-1,2,3,4-tetrahydro-quinolin-7-yl)ethyl]acrylamide] | – | 60 to 63 °C | – |
| CC(NC(=O)/C=C/c1cc(F)ccc1F)c1ccc2c(c1)CCCN2 (stereo not shown) [Example 252, 3-(2,5-difluoro-phenyl)-N-[1-(1,2,3,4-tetrahydro-quinolin-6-yl)-ethyl]acrylamide] | – | 55 to 58 °C | – |
| CCN1CCCc2ccc(C(C)NC(=O)/C=C/c3cc(F)ccc3F)cc21 (racemic) [Example 242, (±)-3-(2,5-difluoro-phenyl)-N-[1-(1-ethyl-1,2,3,4-tetrahydro-quinolin-7-yl)ethyl]acrylamide] | 1.4 | 50 to 53 °C | – |
| CC(NC(=O)/C=C/c1cccc(F)c1)c1ccc2c(c1)N(C)CCC2 (racemic) [Example 239, (±)-3-(3-fluoro-phenyl)-N-[1-(1-methyl-1,2,3,4-tetrahydro-quinolin-7-yl)ethyl]acrylamide] | – | 60 to 63 °C | – |
| CC(NC(=O)/C=C/c1cc(F)ccc1F)c1ccc2c(c1)N(C)CCC2 (racemic) [Example 237, (±)-3-(2,5-difluoro-phenyl)-N-[1-(1-methyl-1,2,3,4-tetrahydro-quinolin-7-yl)ethyl]acrylamide] | – | 52 to 55 °C | – |
| CC(NC(=O)/C=C/c1ccc(F)cc1)c1ccc2c(c1)N(C)CCC2 (racemic) [Example 240, (±)-3-(4-fluoro-phenyl)-N-[1-(1-methyl-1,2,3,4-tetrahydro-quinolin-7-yl)ethyl]acrylamide] | – | 183 to 185 °C | – |
| CC(=O)N1CCCc2ccc(C(C)NC(=O)/C=C/c3ccccc3)cc21 (racemic) [Example 243, (±)-N-[1-(1-acetyl-1,2,3,4-tetrahydro-quinolin-7-yl)-ethyl]-3-phenyl-acrylamide] | – | 65 to 68 °C | – |
| CC(NC(=O)/C=C/c1ccccc1Cl)c1ccc2c(c1)OCO2 (racemic) [Example 46, (±)-N-(1-Benzo[1,3]-diox-ol-5-yl-ethyl)-3-(2-chlor-o-phenyl)-acrylamide] | 0.0006 | – | 260 |
| CC(NC(=O)/C=C/c1ccc(F)c(F)c1)c1ccc2c(c1)CCCN2 (stereo not shown) [Example 250, 3-(3,4-difluoro-phenyl)-N-[1-(1,2,3,4-tetrahydro-quinolin-6-yl)-ethyl]acrylamide] | – | 156 °C (dec.) | – |
| CC(NC(=O)/C=C/c1cc(F)cc(F)c1)c1ccc2c(c1)CCCN2 (stereo not shown) [Example 248, 3-(3,5-difluoro-phenyl)-N-[1-(1,2,3,4-tetrahydro-quinolin-6-yl)-ethyl]acrylamide] | 5 | 180 °C (dec.) | 290 |
| CC(NC(=O)/C=C/c1ccccc1F)c1ccc2c(c1)NCCC2 (racemic) | – | 171 to 173 °C | – |
| CC(NC(=O)/C=C/c1cccc(F)c1)c1ccc2c(c1)NCCC2 (racemic) [Example 232, (±)-3-(3-Fluoro-phenyl)-N-[1-(1,2,3,4-tetrahydro-quinolin-7-yl)ethyl]-acrylamide] | – | 130 to 132 °C (dec.) | – |
| CC(NC(=O)/C=C/c1ccccc1)c1ccc2c(c1)N(C)CCC2 (racemic) [Example 238, (±)-N-[1-(1-methyl-1,2,3,4-tetrahydro-quinolin-7-yl)-ethyl]-3-phenyl-acrylamide] | – | 166 °C (dec.) | – |
| CC(NC(=O)/C=C/c1ccccc1F)c1ccc2c(c1)N(CC1CC1)CCO2 (single isomer, unassigned) [Example 215, 3-(2-fluoro-phenyl)-N-[1-(4-cyclopropylmethyl-3,4-dihydro-2H-benzo[1,4]oxazin-6-yl)ethyl]-acrylamide] | 5.4 | – | – |
| CC(NC(=O)/C=C/c1ccccc1)c1ccc2c(c1)CCCN2 (stereo not shown) [Example 249, 3-phenyl-N-[1-(1,2,3,4-tetrahydro-quinolin-6-yl)ethyl]acrylamide] | – | 64 to 67 °C | – |
| CCN1CCOc2ccc(C(C)NC(=O)/C=C/c3ccccc3F)cc21 (single isomer, unassigned) [Example 214, 3-(2-fluoro-phenyl)-N-[1-(4-ethyl-3,4-dihydro-2H-benzo[1,4]oxazin-6-yl)ethyl]-acrylamide] | 0.0009 | – | 260 |
| CC(NC(=O)/C=C/c1c(F)cccc1F)c1ccc2c(c1)CCCN2 (stereo not shown) [Example 253, 3-(2,6-difluoro-phenyl)-N-[1-(1,2,3,4-tetrahydro-quinolin-6-yl)ethyl]acrylamide] | – | 77 to 80 °C | – |
